Assay results published in patent EP0760376A1, “PEPTIDES INHIBITING PHOSPHOLIPASE C” (Kyowa Hakko Kogyo Co., Ltd., priority 1995, dated 1996).
≈ marks a conversion by molar mass, not a printed value. Square brackets hold non-standard residues; d marks the D form. Peptide text beside a SMILES is read from it. * marks the point of attachment. Stearoyl = CCCCCCCCCCCCCCCCCC(=O)*; 12Ado = NCCCCCCCCCCCC(=O)O; Aoc = NCCCCCCCC(=O)O; Ahp = NCCCCCCC(=O)O; Ahx = NCCCCCC(=O)O; Ava = NCCCCC(=O)O; GABA = NCCCC(=O)O

Assays:
[1] = test system: Pseudomonas aeruginosa Bin H No. 1; format: cell-based; settings: Bin H No. 1, pH 7
Experimental: (§1) The antibacterial activity was determined by the agar dilution method using a medium (pH 7.0) which comprises 3 g/l Bacto-tryptone (Difco Laboratories), 1 g/l meat extract, 1 g/l glucose and 16 g/l agar.

PLC-γ1 = target: T1, PLC-γ1 (Bos taurus, UniProt P08487); assay: PLC-inhibiting activity (release of [3H]inositol phosphate from [3H]PIP2); format: biochemical, bovine; settings: 37°C, 10 minutes, pH 6.0, read-out: Inhibition rate (%)
T1 construct: A sample of PLC-γ1 was prepared from bovine thymus; from tissue; host or cells: bovine thymus
T1 sequence (P08487 1-1291): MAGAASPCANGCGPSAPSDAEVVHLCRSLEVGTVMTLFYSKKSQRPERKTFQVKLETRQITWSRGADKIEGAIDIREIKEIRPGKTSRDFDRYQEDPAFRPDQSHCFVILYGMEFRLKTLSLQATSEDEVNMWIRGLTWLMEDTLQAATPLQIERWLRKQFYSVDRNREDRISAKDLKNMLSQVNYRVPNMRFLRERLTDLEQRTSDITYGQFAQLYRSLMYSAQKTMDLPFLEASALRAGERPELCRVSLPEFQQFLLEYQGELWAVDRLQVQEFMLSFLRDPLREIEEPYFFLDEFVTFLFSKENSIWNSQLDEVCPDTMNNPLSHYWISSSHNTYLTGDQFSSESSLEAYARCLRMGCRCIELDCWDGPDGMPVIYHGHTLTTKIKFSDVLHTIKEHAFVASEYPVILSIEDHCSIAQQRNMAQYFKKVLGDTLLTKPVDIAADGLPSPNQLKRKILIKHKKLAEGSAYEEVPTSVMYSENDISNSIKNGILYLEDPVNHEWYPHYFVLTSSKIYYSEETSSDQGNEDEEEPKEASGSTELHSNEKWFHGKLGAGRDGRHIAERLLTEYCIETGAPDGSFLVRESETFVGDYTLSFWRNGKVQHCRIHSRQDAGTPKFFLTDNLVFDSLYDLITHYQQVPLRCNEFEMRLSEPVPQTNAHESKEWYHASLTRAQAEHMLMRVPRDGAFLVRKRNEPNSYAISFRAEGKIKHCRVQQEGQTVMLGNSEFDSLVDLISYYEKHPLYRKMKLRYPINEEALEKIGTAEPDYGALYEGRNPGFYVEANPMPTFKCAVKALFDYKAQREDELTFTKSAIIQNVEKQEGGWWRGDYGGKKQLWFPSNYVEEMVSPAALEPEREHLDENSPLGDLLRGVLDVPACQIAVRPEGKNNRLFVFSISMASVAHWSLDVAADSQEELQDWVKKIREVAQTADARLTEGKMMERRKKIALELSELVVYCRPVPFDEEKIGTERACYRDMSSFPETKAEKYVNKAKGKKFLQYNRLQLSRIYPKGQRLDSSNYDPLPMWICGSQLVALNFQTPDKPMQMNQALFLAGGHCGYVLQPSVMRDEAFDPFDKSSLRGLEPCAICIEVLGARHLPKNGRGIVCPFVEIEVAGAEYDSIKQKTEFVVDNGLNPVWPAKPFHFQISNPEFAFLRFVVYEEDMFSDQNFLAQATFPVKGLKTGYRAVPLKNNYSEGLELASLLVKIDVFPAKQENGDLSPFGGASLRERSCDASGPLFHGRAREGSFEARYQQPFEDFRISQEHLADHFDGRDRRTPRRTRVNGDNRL
Experimental: A sample of PLC-γ1 was prepared from bovine thymus according to the method described in Y. Honma et al., Biochem. J., 269, 13 (1990). A solution having the composition shown in Table 2 below was prepared on ice and was heated to 37°C to start reaction. After incubation for 10 minutes, 2 ml of a chloroform/methanol mixture (2:1, v/v) was added thereto to stop the reaction. The resulting inositol phosphate was extracted with 0.5 ml of 1 N hydrochloric acid. The extract was separated into two liquid phases by centrifugation (2000 x g, 3 minutes), and the amount of ^3H contained in the supernatant (0.7 ml) was measured with a scintillation counter. Table 2 [table] The inhibition rate (X) was calculated according to the following equation: X (%) = (A-C) / (B-C) x 100 [formula] where A is the obtained value of specific radioactivity, B is the value of specific radioactivity obtained when the same amount of water was added instead of the aqueous solution of the test peptide, and C is the value of specific radioactivity obtained when the same amount of water was added instead of the sample and the aqueous solution of the test peptide.

KMS-4 cells = assay: Cell growth-inhibiting activity (BrdU incorporation, cell growth detection kit); format: cell-based; settings: culturing with peptide for 17 hours
Experimental: The cell growth-inhibiting activity was determined using a cell growth detection kit (Amersham) in the following manner. KMS-4 cells [M. Nanba et al, International Journal of Cancer, 32, 697 (1983)] were suspended in DMEM medium (Nissui Pharmaceutical Co., Ltd.) containing 10% fetal calf serum at a density of 1-2 x 10^4 cells/ml, and 1 ml of the cell suspension was put into each well of a 24-well plate (Corning Inc.). The cells were cultured in a CO2 incubator (37°C, 5% CO2) for 2 days. Then, the medium was replaced with a fresh DMEM medium containing 10% fetal calf serum, and the test peptide was added thereto, followed by culturing for 17 hours. The medium was replaced with a serum-free DMEM medium, and 0.5 ml of a solution prepared by diluting labeled reagent 5-bromo-2'-deoxyuridine (BrdU) and 5-fluoro-2'-deoxyuridine (FdU) (10:1) 1000-fold with the same medium was added to each well, followed by culturing for 2 hours. Then the medium was removed, and the cells were immobilized with an acetic acid/ethanol solution. The immobilized cells were stained according to the method for the cell growth detection kit of Amersham, and then further stained with a 1% Giemsa solution (Merck & Co., Inc.). The number of cells which incorporated BrdU and the total number of cells within one field of vision of a microscope (approximately 200 cells) were determined, and the proportion (%) of stained cells per field of vision was calculated. The above procedure was repeated 10 times, and the average value thereof was defined as the cell growth activity (%). The cell growth-inhibiting activity was calculated in the following manner. That is, the cell growth inhibition rate was calculated according to the following equation: X (%) = (1-B/A) x 100 [formula] where A is the growth activity when no peptide was added, and B is the growth activity when the test peptide was added.

[2] = test system: Proteus vulgaris ATCC 6897; format: cell-based; settings: ATCC 6897, pH 7
Experimental: as §1

[3] = test system: Bacillus subtilis No. 10707; format: cell-based; settings: No. 10707, pH 7
Experimental: as §1

Row | MIC (µg/ml) PA [1] [µg/mL] | MIC (µg/ml) PV [2] [µg/mL] | MIC (µg/ml) BS [3] [µg/mL] | SMILES | Inhibition rate (%) (KMS-4 cells; Concentration 1 µM) | further results
1 | 106 (≈ 54.1 µM) |  |  | CCCCCCCCCCCCCCCCCC(=O)N[C@@H](CC(C)C)C(=O)N[C@@H](Cc1ccc(O)cc1)C(=O)N[C@@H](CCCNC(=N)N)C(=O)N[C@@H](CCCCN)C(=O)N[C@@H](CCSC)C(=O)N[C@@H](CCCNC(=N)N)C(=O)N[C@@H](CC(C)C)C(=O)N[C@@H](CCCNC(=N)N)C(=O)N[C@@H](Cc1ccc(O)cc1)C(=O)N1CCC[C@H]1C(=O)N[C@H](C(=O)NCCCCCCCCCCCC(N)=O)C(C)C [Compound (I-8), C17H35CO-Leu-Tyr-Arg-Lys-Met-Arg-Leu-Arg-Tyr-Pro-Val-NH-(CH2)11CONH2] (Stearoyl-LYRKMRLRYPV[12Ado]-NH2) |  | inhibition at 20 µM (PLC-γ1; Concentration 20 µM (aqueous solution of test peptide provided for the test)): 76%
2 | 129 (≈ 77.6 µM) | 129 (≈ 77.6 µM) | 129 (≈ 77.6 µM) | CSCC[C@H](NC(=O)[C@H](CCCCN)NC(=O)[C@H](CCCNC(=N)N)NC(=O)[C@H](Cc1ccc(O)cc1)NC(=O)[C@H](CC(C)C)NC(C)=O)C(=O)N[C@@H](CCCNC(=N)N)C(=O)N[C@@H](CC(C)C)C(=O)N[C@@H](CCCNC(=N)N)C(=O)N[C@@H](Cc1ccc(O)cc1)C(=O)N1CCC[C@H]1C(=O)N[C@H](C(=O)NCCCCCCC(N)=O)C(C)C [Compound (I-4), CH3CO-Leu-Tyr-Arg-Lys-Met-Arg-Leu-Arg-Tyr-Pro-Val-NH-(CH2)6CONH2] (Ac-LYRKMRLRYPV[Ahp]-NH2) |  | Inhibition rate (%) (KMS-4 cells; Concentration 25 µM): 47%; inhibition at 120 µM (PLC-γ1; Concentration 120 µM (aqueous solution of test peptide provided for the test)): 89%
3 | 163 (≈ 97.2 µM) |  | 81 (≈ 48.3 µM) | CSCC[C@H](NC(=O)[C@H](CCCCN)NC(=O)[C@H](CCCNC(=N)N)NC(=O)[C@H](Cc1ccc(O)cc1)NC(=O)[C@H](CC(C)C)NC(C)=O)C(=O)N[C@@H](CCCNC(=N)N)C(=O)N[C@@H](CC(C)C)C(=O)N[C@@H](CCCNC(=N)N)C(=O)N[C@@H](Cc1ccc(O)cc1)C(=O)N1CCC[C@H]1C(=O)N[C@H](C(=O)NCCCCCCCC(N)=O)C(C)C [Compound (I-5), CH3CO-Leu-Tyr-Arg-Lys-Met-Arg-Leu-Arg-Tyr-Pro-Val-NH-(CH2)7CONH2] (Ac-LYRKMRLRYPV[Aoc]-NH2) | 70 | inhibition at 119 µM (PLC-γ1; Concentration 119 µM (aqueous solution of test peptide provided for the test)): 83%
4 | 150 (≈ 86.5 µM) |  |  | CSCC[C@H](NC(=O)[C@H](CCCCN)NC(=O)[C@H](CCCNC(=N)N)NC(=O)[C@H](Cc1ccc(O)cc1)NC(=O)[C@H](CC(C)C)NC(C)=O)C(=O)N[C@@H](CCCNC(=N)N)C(=O)N[C@@H](CC(C)C)C(=O)N[C@@H](CCCNC(=N)N)C(=O)N[C@@H](Cc1ccc(O)cc1)C(=O)N1CCC[C@H]1C(=O)N[C@H](C(=O)NCCCCCCCCCCCC(N)=O)C(C)C [Compound (I-7), CH3CO-Leu-Tyr-Arg-Lys-Met-Arg-Leu-Arg-Tyr-Pro-Val-NH-(CH2)11CONH2] (Ac-LYRKMRLRYPV[12Ado]-NH2) | 39 | inhibition at 114 µM (PLC-γ1; Concentration 114 µM (aqueous solution of test peptide provided for the test)): 82%

Continued, molecule first:

Row | SMILES | MIC (µg/ml) PA [1] [µg/mL] | MIC (µg/ml) PV [2] [µg/mL] | MIC (µg/ml) BS [3] [µg/mL] | Inhibition rate (%) (KMS-4 cells; Concentration 1 µM) | further results
5 | CSCC[C@H](NC(=O)[C@H](CCCCN)NC(=O)[C@H](CCCNC(=N)N)NC(=O)[C@H](Cc1ccc(O)cc1)NC(=O)[C@H](CC(C)C)NC(C)=O)C(=O)N[C@@H](CCCNC(=N)N)C(=O)N[C@@H](CC(C)C)C(=O)N[C@@H](CCCNC(=N)N)C(=O)N[C@@H](Cc1ccc(O)cc1)C(=O)N1CCC[C@H]1C(=O)N[C@H](C(=O)NCCCC(N)=O)C(C)C [Compound (I-1), CH3CO-Leu-Tyr-Arg-Lys-Met-Arg-Leu-Arg-Tyr-Pro-Val-NH-(CH2)3CONH2] (Ac-LYRKMRLRYPV[GABA]-NH2) | 167 (≈ 103 µM) | 83 (≈ 51.2 µM) | 167 (≈ 103 µM) | 10 | inhibition at 123 µM (PLC-γ1; Concentration 123 µM (aqueous solution of test peptide provided for the test)): 85%
6 | CSCC[C@H](NC(=O)[C@H](CCCCN)NC(=O)[C@H](CCCNC(=N)N)NC(=O)[C@H](Cc1ccc(O)cc1)NC(=O)[C@H](CC(C)C)NC(C)=O)C(=O)N[C@@H](CCCNC(=N)N)C(=O)N[C@@H](CC(C)C)C(=O)N[C@@H](CCCNC(=N)N)C(=O)N[C@@H](Cc1ccc(O)cc1)C(=O)N1CCC[C@H]1C(=O)N[C@H](C(=O)NCCCCC(N)=O)C(C)C [Compound (I-2), CH3CO-Leu-Tyr-Arg-Lys-Met-Arg-Leu-Arg-Tyr-Pro-Val-NH-(CH2)4CONH2] (Ac-LYRKMRLRYPV[Ava]-NH2) | 77 (≈ 47.1 µM) | 77 (≈ 47.1 µM) | 77 (≈ 47.1 µM) | 68 | inhibition at 122 µM (PLC-γ1; Concentration 122 µM (aqueous solution of test peptide provided for the test)): 75%
7 | CSCC[C@H](NC(=O)[C@H](CCCCN)NC(=O)[C@H](CCCNC(=N)N)NC(=O)[C@H](Cc1ccc(O)cc1)NC(=O)[C@H](CC(C)C)NC(C)=O)C(=O)N[C@@H](CCCNC(=N)N)C(=O)N[C@@H](CC(C)C)C(=O)N[C@@H](CCCNC(=N)N)C(=O)N[C@@H](Cc1ccc(O)cc1)C(=O)N1CCC[C@H]1C(=O)N[C@H](C(=O)NCCCCCC(N)=O)C(C)C [Compound (I-3), CH3CO-Leu-Tyr-Arg-Lys-Met-Arg-Leu-Arg-Tyr-Pro-Val-NH-(CH2)5CONH2] (Ac-LYRKMRLRYPV[Ahx]-NH2) | 175 (≈ 106 µM) | 175 (≈ 106 µM) | 88 (≈ 53.4 µM) |  | Inhibition rate (%) (KMS-4 cells; Concentration 6 µM): 53%; inhibition at 121 µM (PLC-γ1; Concentration 121 µM (aqueous solution of test peptide provided for the test)): 77%
